Experimental data: patent publication US12162878B2 (HINOVA PHARMACEUTICALS INC., priority 2018, dated 2024)
Where two headings read alike, the source gives them in different places.

Tests used:
CWR22RV1 cells = experiment: Compound in combination with androgen receptor inhibitor HC-1119, proliferation of CWR22RV1 cells (CCK-8); format: cell-based, human; details: for IC50: Homo sapiens, CWR22Rv1, 144 h, 6 days, read-out: IC50 for inhibition on the activity of CWR22RV1
Description: • CWR22RV1 cell line (Cell Bank of Chinese Academy of Sciences, TCHu100) • FBS (Gibco, Cat. No. 10099-141) • 0.01M PBS (Biosharp, Cat. No. 162262) • RIPM1640 (Hyclone, Cat. No. 308090.01) • Penicillin-Streptomycin (Hyclone, Cat. No. SV30010) • Cell counting kit-8 (Signalway Antibody, Cat. No. CP002) • DMSO (Sigma, Cat. No. D5879) • Centrifuge Tube, 15 ml (Excell Bio, Cat. No. CS015-0001) • Cell Culture Dish, (Excell Bio, Cat. No. CS016-0128) • 96-well cell culture cluster (Corning, Cat. No. 3599) Experimental Method:
1) CWR22RV1 cells were subcultured in cell culture media, and the cells in good growth condition were seeded in a 96-well plate, 60 μL for each well, thus the number of cells per well was 2000, then the plate was cultured overnight in a 37° C., 5% CO2 cell incubator.
(§1) 2) The drug was prepared with dimethyl sulfoxide (DMSO) as a 10 mM stock solution. Prior to use, the solution was diluted 3 times with DMSO, and then diluted with a 3-fold gradient to obtain 9 concentration gradients. Then, each concentration of the compound was further diluted 200 times with the culture media (to ensure that DMSO concentration in the culture system was 0.1%), 2 repeat wells for each concentration. The diluted solution of each compound (20 μL) was added to the cell culture well (with a final concentration of 10 μM, 3.3 μM, 1.1 μM . . . ); while the solution of HC-1119 was diluted with culture media to the concentrations of 50 μM and 15 μM, respectively, and the diluted solution of HC-1119 was added to the corresponding cell culture well (with a final concentration of 10 μM, 3 μM), then shaken gently for mixing. In addition, three negative control wells containing only cells and three blank control wells containing only culture media (20 μL DMSO diluted 200 times with culture media being added to six wells) were included.
(§2) (1) After culturing for 6 days, 10 μL CCK-8 was added to each well and cultured for additional 2.5 h in a 37° C., 5% CO2 cell incubator.
(§3) (2) The absorbance (OD value) at 450 nm was measured with a multifunctional microplate reader.
(§4) (3) The data was analyzed by the Dose-response-inhibition equation in the software GraphPad Prism6, and the IC50 value was obtained.

Vcap cells = experiment: Compound in combination with androgen receptor inhibitor HC-1119, proliferation of Vcap cells (CCK-8); format: cell-based, human; details: for IC50: Homo sapiens, VCaP, 144 h, 6 days, read-out: IC50 for inhibition on the activity of Vcap; for effect of combination with HC-1119 on inhibitory action on Vcap cells (in words): in combination with HC-1119, Vcap cells
Description: • Vcap cell line (Cell Bank of Chinese Academy of Sciences, TCHu220) • FBS (Gibco, Cat. No. 10099-141) • 0.01M PBS (Biosharp, Cat. No. 162262) • DMEM HIGH Glucose (Hyclone, Cat. No. SH30243.01) • Penicillin-Streptomycin (Hyclone, Cat. No. SV30010) • Cell counting kit-8 (Signalway Antibody, Cat. No. CP002) • DMSO (Sigma, Cat. No. D5879) • Centrifuge Tube, 15 ml (Excell Bio, Cat. No. CS015-0001) • Cell Culture Dish (Excell Bio, Cat. No. CS016-0128) • 96-well cell culture cluster (Corning, Cat. No. 3599) 2. Experimental Method
1) Vcap cells were subcultured in cell culture media, and the cells in good growth condition were seeded in a 96-well plate, 60 μL for each well, thus the number of cells per well was 10000, then the plate was cultured overnight in a 37° C., 5% CO2 cell incubator.
as §1, with “10 μM, 1 μM), then” for “10 μM, 3 μM), then”
as §2, §3, §4

[1] = in combination with 1 μM HC-1119, Vcap cells
[2] = in combination with 10 μM HC-1119, Vcap cells

IC50 (Vcap cells; compound alone, Vcap cells) | IC50 (Vcap cells; [1]) | IC50 (Vcap cells; [2]) | Structure (SMILES) | IC50 (CWR22RV1 cells; compound alone, CWR22RV1 cells) | IC50 (CWR22RV1 cells; in combination with 3 μM HC-1119, CWR22RV1 cells) | IC50 (CWR22RV1 cells; in combination with 10 μM HC-1119, CWR22RV1 cells) | effect of combination with HC-1119 on inhibitory action on CWR22RV1 cells (in words) (CWR22RV1 cells; in combination with HC-1119, CWR22RV1 cells) | effect of combination with HC-1119 on inhibitory action on Vcap cells (in words) (Vcap cells)
15 nM | 0.33 nM | 0.13 nM | [2H]C([2H])([2H])n1cc(-c2cc(S(C)(=O)=O)ccc2N2CCC3(CC2)CC3(F)F)c2cc[nH]c2c1=O [Compound 184, 4-(2-(1,1-difluoro-6-aza-spiro[2.5]octan-6-yl)-5-(methylsulfonyl)phenyl)-6-trideuteromethyl-1H-pyrrolo[2,3-c]pyridin-7(6H)-one] | 8.1 nM | 2 nM | 1.5 nM | improve the inhibitory action | improve the inhibitory action
17.6 nM | 0.55 nM | 0.18 nM | [2H]C([2H])([2H])n1cc(-c2cc(S(C)(=O)=O)c(F)cc2N2CCC3(CC2)CC3(F)F)c2cc[nH]c2c1=O [Compound 219, 4-(2-(1,1-difluoro-6-aza-spiro[2.5]octan-6-yl)-4-fluoro-5-(methylsulfonyl)phenyl)-6-trideuteromethyl-1H-pyrrolo[2,3-c]pyridin-7(6H)-one] | – | – | – | – | improve the inhibitory action
